“Also recorded” adds a separate entry of the source.
Key:
[1] = system: mouse leukemia cell line (32Dp210); test: Size of subcutaneous 32Dp210 tumor mass in mice (Experimental Example 10); format: in vivo, mice (C3H/HEJ); settings: 32Dp210 subcutaneous, 10 mg/kg orally once daily, 7 days, n=2, listed as PAI-1 inhibitor
Method: Specifically, 5×10^5 cells of a mouse leukemia cell line (32Dp210) were transplanted subcutaneously in mice (C3H/HEJ), and one week later, engraftment of more than 5 mm of a tumor mass in the major axis was confirmed. Subsequently, the PAI-1 inhibitor was orally administered once daily at 10 mg/kg for a total of 7 days. On the next day of the final administration, the size of the tumor mass ([…]) was measured. As a comparative control experiment, the size of the tumor mass was measured in the same manner in terms of a mouse group to which only physiological saline (vehicle) was orally administered instead of the PAI-1 inhibitor.

[2] = system: mouse colorectal cancer cell line (MC38); test: PD-L1 expression level by flow cytometry in MC38 cells (Experimental Example 3); format: cell-based; settings: inhibitor 50 μM with rPAI-1 40 nM, 2 days, listed as PAI-1 inhibitor
Method: Next, the PD-L1 expression level was determined by flow cytometry in the same manner as in Experimental Example 1.
Likewise, a mouse colorectal cancer cell line (MC38) and a mouse malignant melanoma cell line (B16F10) were also tested in the same manner, instead of the mouse leukemia cell line (32Dp210).

Question: Which “size of the tumor mass” value [1] does the source give for `O=C(Nc1ccc(Cl)cc1C(=O)[O-])c1cccc(-c2cccc3cccnc23)c1.[Na+]` [Example 68, 5-chloro-2-(((3-(quinolin-8-yl)phenyl)carbonyl)amino)sodium benzoate] here?
Answer: tumor mass disappearance; also recorded: loss of tumor mass

Question: And the “PD-L1 expression induction by rPAI-1” value [2]?
Answer: completely inhibited the induction; also recorded: the same results as those of the leukemia cells

Reference: patent US20220340665A1, “INHIBITOR AGAINST EXPRESSION OF IMMUNE CHECKPOINT MOLECULE” (RENASCIENCE INC., priority 2019, published 2022)
